Experimental findings from ChEMBL document CHEMBL5137135, “Highly Oxidized Germacranolides from Elephantopus tomentosus and the Configurational Revision of Some Previously Reported Analogues” (J Nat Prod, 2022) are described below.

Holding throughout (assay type): functional, cell-based
Test [1] concerns HepG2. Description: Cytotoxicity against human HepG2 cells assessed as inhibition of cell growth by MTT assay.
Test [2] deals with Hep 3B2. Description: Cytotoxicity against human Hep3B cells assessed as inhibition of cell growth by MTT assay.
Test [3] has as its system HepG2. Description: Induction of apoptosis in human HepG2 cells assessed as membrane blebbing at 1 to 4 uM after 48 hrs by phase contrast microscopic analysis. The conditions noted are these: dose 1-4 µM.
The subject of test [4] is Hep 3B2. Description: Induction of apoptosis in human Hep3B cells assessed as membrane blebbing at 1 to 4 uM after 48 hrs by phase contrast microscopic analysis. The note with it: dose 1-4 µM.
The subject of test [5] is HepG2. Description: Induction of apoptosis in human HepG2 cells assessed as cellular shrinkage at 1 to 4 uM after 48 hrs by phase contrast microscopic analysis. The note with it: dose 1-4 µM.
For test [6], the system named is Hep 3B2. The experiment in a line: Induction of apoptosis in human Hep3B cells assessed as cellular shrinkage at 1 to 4 uM after 48 hrs by phase contrast microscopic analysis. The conditions noted are these: dose 1-4 µM.
In test [7] the test system is HepG2. Description: Induction of apoptosis in human HepG2 cells at 1 to 4 uM after 48 hrs by Hoechst 33258 staining based assay. The note with it: dose 1-4 µM.
Test [8] deals with Hep 3B2. The experiment in a line: Induction of apoptosis in human Hep3B cells at 1 to 4 uM after 48 hrs by Hoechst 33258 staining based assay. The conditions noted are these: dose 1-4 µM.
Test [9] concerns HepG2. The experiment in a line: Induction of mitochondrial membrane potential loss in human HepG2 cells by JC-1 staining based fluorescence assay.
In test [10] the test system is Hep 3B2. The experiment in a line: Induction of mitochondrial membrane potential loss in human Hep3B cells by JC-1 staining based fluorescence assay.

SMILES strings stand for the structures. Activity calls are given as the source filed them. The calls are words filed in the database; no cut-off is given here.

On to `C/C=C(\C)C(=O)O[C@H]1C/C(C)=C\[C@@]2(OC)C=C(C)[C@@H](O2)[C@H]2OC(=O)[C@@H](CO)[C@@H]21`, for which the half-maximal inhibitory concentration (IC50) with HepG2 [1] and in the test on Hep 3B2 [2] was more than 10 µM in each case.
For `C=C1C[C@H](OC(=O)C(=C)C)[C@H]2C(=C)C(=O)O[C@@H]2[C@@H]2O[C@@](OC)(C1)C[C@@]2(C)O`, the IC50 in the test on HepG2 [1] came to 8.1 µM; with Hep 3B2 [2], 2.4 µM.
On the same counts, the results for `C=C(C)C(=O)O[C@H]1C/C(C)=C\[C@@]2(OC)C=C(C)[C@@H](O2)[C@H]2OC(=O)[C@@H](COC)[C@@H]21` are more than 10 µM and more than 10 µM.
On to `C=C1C[C@H](OC(=O)C(=C)C)[C@H]2C(=C)C(=O)O[C@@H]2[C@@H]2O[C@@](O)(C1)C[C@@]2(C)OC`, for which the figures for the IC50 in the test with HepG2 [1] and in the test with Hep 3B2 [2] were 8.5 µM and 7.5 µM, respectively.
On to `C=C1C[C@H](OC(=O)/C(C)=C/C)[C@H]2C(=C)C(=O)O[C@@H]2[C@@H]2O[C@@](OC)(C1)C[C@@]2(C)O`, for which the IC50 worked out at 9.8 µM in the test on HepG2 [1] and 9.5 µM in the test on Hep 3B2 [2].
On to `C/C=C(/C)C(=O)O[C@H]1C/C(C)=C\[C@@]2(OC)C=C(C)[C@@H](O2)[C@H]2OC(=O)[C@@H](COC)[C@@H]21`, for which the IC50 in the test with HepG2 [1] and with Hep 3B2 [2] was more than 10 µM throughout.
For the compound `C=C1C[C@H](OC(=O)C(=C)C)[C@H]2C(=C)C(=O)O[C@@H]2[C@@H]2O[C@](OC)(C=C2C)C1`, the results for the 50% inhibitory concentration (IC50) with HepG2 [1] and in the test with Hep 3B2 [2] were 2.2 µM and 2.4 µM, respectively. The outcome in the test with HepG2 [3], in the test with Hep 3B2 [4], in the test with HepG2 [5], with Hep 3B2 [6], in the test with HepG2 [7] and with Hep 3B2 [8] was Active. Moreover, the outcome in the test with HepG2 [9] and with Hep 3B2 [10] was Active.
As for `C=C1C[C@H](OC(=O)C(=C)C)[C@H]2C(=C)C(=O)O[C@@H]2[C@@H]2O[C@@](O)(C1)C[C@@]2(C)O`, the results for the IC50 in the test with HepG2 [1] and in the test with Hep 3B2 [2] were 7.3 µM and 6.6 µM, respectively.
Take `C=C1C(=O)O[C@H]2[C@H]1[C@@H](OC(=O)/C(C)=C/C)C/C(C)=C\[C@@]1(OC)C=C(C)[C@H]2O1`: the values for the IC50 with HepG2 [1] and with Hep 3B2 [2] were 9.7 µM and 5 µM, respectively.
On to `C=C(C)C(=O)O[C@H]1C/C(C)=C\[C@@]2(c3ccc(O)c(O)c3)C=C(C)[C@@H](O2)[C@H]2OC(=O)C(=C)[C@@H]21`, for which the IC50 in the test with HepG2 [1] came to 5.7 µM; with Hep 3B2 [2], 3.7 µM.
Consider `C=C(C)C(=O)O[C@H]1C/C(C)=C\[C@@]2(c3cccc(O)c3O)C=C(C)[C@@H](O2)[C@H]2OC(=O)C(=C)[C@@H]21`, for which the half-maximal inhibitory concentration (IC50) in the test on HepG2 [1] is 4.3 µM; in the test with Hep 3B2 [2], 5.6 µM.
On to `C=C1C[C@H](OC(=O)/C(C)=C/C)[C@H]2C(=C)C(=O)O[C@@H]2[C@@H]2O[C@](OC)(C=C2C)C1`, for which the IC50 is 3.8 µM with HepG2 [1] and 8.5 µM in the test with Hep 3B2 [2].
For the compound `C=C1C[C@H](OC(=O)/C(C)=C/C)[C@H]2C(=C)C(=O)O[C@@H]2[C@@H]2O[C@@](O)(C1)C[C@@]2(C)O`, the figures for the IC50 with HepG2 [1] and with Hep 3B2 [2] were 8.7 µM and 3.1 µM, respectively.
Regarding `C=C1C(=O)O[C@H]2[C@H]1[C@@H](OC(=O)/C(C)=C/C)C/C(C)=C\[C@@]1(c3ccc(O)c(O)c3)C=C(C)[C@H]2O1`, the results for the concentration for half-maximal inhibition (IC50) with HepG2 [1] and in the test with Hep 3B2 [2] were 3 µM and 3.6 µM, respectively.
`C=C1C(=O)O[C@H]2[C@H]1[C@@H](OC(=O)/C(C)=C/C)C/C(C)=C\[C@@]1(c3cccc(O)c3O)C=C(C)[C@H]2O1`: the IC50 in the test on HepG2 [1] was 4.5 µM; in the test with Hep 3B2 [2], 5.8 µM.
As to `C=C1C(=O)O[C@H]2[C@H]1[C@@H](OC(=O)/C(C)=C\C)C/C(C)=C\[C@@]1(OC)C=C(C)[C@H]2O1`, the IC50 with HepG2 [1] is 3.5 µM; in the test with Hep 3B2 [2], 3.8 µM.
With `C=C(C)C(=O)O[C@H]1C/C(C)=C\[C@@]2(OC)C=C(C)[C@@H](O2)[C@H]2OC(=O)C(=C)[C@@H]21`, the half-inhibitory concentration (IC50) in the test with HepG2 [1] was determined as 3.8 µM; with Hep 3B2 [2], 8.5 µM.
